Values quoted from earlier work as cited in patent US20240190825A1, “PROCESS FOR PREPARATION OF CABOZANTINIB” (BIOCON LIMITED, priority 2021, published 2024).
Each block holds one compound with its values, some of them ahead of it.

solubility in aqueous media (aqueous media): practically insoluble
SMILES: COc1cc2nccc(Oc3ccc(NC(=O)C4(C(=O)Nc5ccc(F)cc5)CC4)cc3)c2cc1OC.O=C(O)C[C@H](O)C(=O)O [Cabozantinib (S)-malate salt, N-(4-(6,7-dimethoxyquinolin-4-yloxy)phenyl)-N′-(4fluorophenyl)cyclopropane-1,1-dicarboxamide, (2S)-hydroxybutanedioate]

water solubility (water): poorly water-soluble
SMILES: COc1cc2nccc(Oc3ccc(NC(=O)C4(C(=O)Nc5ccc(F)cc5)CC4)cc3)c2cc1OC [Cabozantinib, N-(4-(6,7-dimethoxyquinolin-4-yloxy)phenyl)-N′-(4Fluorophenyl) cyclopropane-1,1-dicarboxamide]

solubility of crystal form (as disclosed in WO2020057622 A1 on WO2015177758 A1 forms): low
SMILES: COc1cc2nccc(Oc3ccc(NC(=O)C4(C(=O)Nc5ccc(F)cc5)CC4)cc3)c2cc1OC.O=C(O)C[C@H](O)C(=O)O [crystalline form M4]
